Reference: publication PMC12128972, “TYRA-300, an FGFR3-selective inhibitor, promotes bone growth in two FGFR3-driven models of chondrodysplasia” (JCI Insight, 2025)
“And” between values parts separate entries of the source, which are not always exact repeats. Equal values may be shown once.

How the values were obtained:
[1] = Pharmacokinetic study, single subcutaneous dose, plasma by LC-MS/MS; type: in vivo, mouse; conditions: for plasma concentration, individual mice: 1.2 mg/kg s.c.
Protocol: The pharmacokinetic profile of TYRA-300 in adult rats has been previously described ([31]). Because the FGFR3-driven skeletal dysplasia models are performed using neonatal mice, an experiment was designed to understand the pharmacokinetics of TYRA-300 at a relevant efficacious dose in male and female mice, ranging from 1 to 12 weeks of age. In this experiment, TYRA-300 plasma levels were measured following administration of a single 1.2 mg/kg subcutaneous dose. […] There was a similar AUCinf in 2-week-old mice (2,295 h × ng/mL). […] Cytochrome P450 enzymes are commonly responsible for the metabolism of TKIs. In mice, cytochrome P450s are not fully developed until the mice are at least 3 weeks of age ([33]), which may explain the higher level of TYRA-300 exposure in the younger mice.
C57BL/6J (The Jackson Laboratory) mice were randomized to treatment groups according to body weight. Owing to the young age of some groups, a mixture of female and male mice was used. Depending on the age of mice, 3–8 mice per group were dosed with a single subcutaneous dose of TYRA-300 (1.2 mg/kg) and then blood was collected either serially at 3 different time points (if 4 weeks of age and older) or terminally at a single time point (if 1–3 weeks of age). Mouse plasma was harvested using lithium heparin tubes at 0.5, 1, 4, 6, 8, 12, and 24 hours after dosing. Compound concentration from plasma was detected using liquid chromatography with tandem mass spectrometry at Oakland Analytics.

[2] = test system: foramen magnum of Fgfr3^N534K/+ mice; experiment: Fgfr3N534K/+ mice: microCT of foramen magnum, grade of synchondroses; type: in vivo, mouse; set-up: key to grade of synchondroses after treatment: I: border of synchondroses were completely separated; II: clear separation of synchondroses with some areas suspicious for bone bridging; III: synchondroses showing bony bridge between 2 borders; IV: completely fused synchondroses with remnants of margin (cartilage); V: completely fused synchondroses; source data of Figure 5C (sheet "5C"): grade of synchondroses: scale not given here
Protocol: Finally, to confirm the effects of TYRA-300 on the axial skeleton in Fgfr3^N534K/+ mice, μCT imaging of the foramen magnum was performed at the end of treatment.
Whole body x-ray images were taken of all animals by Faxitron specimen radiography MX-20 (Faxitron X-Ray LLC) following terminal sacrifice. The length of the L4–L6 lumbar vertebra segment was also measured for each animal using calipers, and the height of the L5 vertebral body was measured from Alcian blue/Sirius red images. Long bones and the skull were then excised, and their dimensions were measured using calipers (VWRi819-0013, VWR International). The transverse and sagittal diameters of the foramen magnum were also measured using calipers for the Fgfr3^Y367/+ model, and measured using the μCT images for the Fgfr3^N534K/+ model.
The heads of all mice were isolated, and skin was stripped before being placed in 70% ethanol at 4°C. μCT images of the skulls were measured on the Skyscan-1272 (Bruker) with the following parameters: 10 μm resolution, 680 ms exposure, 70 kV, 142 μA, and 0.350° rotation step. The μCT data were analyzed using DataViewer and CTAn software (version 1.20.8) to perform postprocessing techniques in 3D. The nasio-occipital length and anteroposterior length of the skull were measured using 2D μCT images.

[3] = test system: lumbar vertebrae of Fgfr3^N534K/+ mice; experiment: Fgfr3N534K/+ mice: histology of lumbar vertebrae and intervertebral disc; type: in vivo, mouse; conditions: 1.8 mg/kg daily for 21 days
Text: We also analyzed the lumbar vertebrae and intervertebral disc (Figure 5E).
The right femur and lumbar vertebrae segment L4–L6 were collected and fixed in 4% paraformaldehyde, decalcified with ethylenediaminetetraacetic acid (EDTA) 0.5 M (pH 8) for 2 or 3 weeks, and embedded in paraffin. Serial paraffin sections of 5 μm were stained with hematoxylin, eosin, and Safranin O. For immunohistochemistry, sections were labeled with antibodies against collagen type X (BIOCYC ref. [1]-CO097-05-RUO, 1:100 dilution), collagen type I (Novotec, 20151, dilution 1:1,000), pERK (Cell Signaling, 4370S, dilution 1:1,000), and PCNA (Abcam, GR3195972-6, 1:500 dilution) using the Dako Envision Kit. Images were captured with an Olympus PD70-IX2-UCB microscope and CellSens software (Olympus Life Science Solutions). Cells were counted using ImageJ software (NIH, Laboratory for Optical Computational Instrumentation).

[4] = test system: Fgfr3^N534K/+ mouse model of HCH; experiment: Fgfr3N534K/+ mice: long bone length; type: in vivo; conditions: 2.4 mg/kg dose, data not shown
[5] = 1.2 mg/kg single s.c., 1-week-old mice
[6] = 1.8 mg/kg daily for 21 days, microCT

- plasma concentration, individual mice ([1]; 1 week old, 12 h, LLOQ 4 ng/mL): 37.7 ng/mL and 35.7 ng/mL and 49.1 ng/mL
- plasma concentration, individual mice ([1]; 1 week old, 24 h, LLOQ 4 ng/mL): 4 ng/mL (2×) and 5.11 ng/mL
- plasma concentration, individual mice ([1]; 1 week old, time 0 h, LLOQ 4 ng/mL): 4 ng/mL
- plasma concentration, individual mice ([1]; 2 weeks old, 0.5 h, LLOQ 8 ng/mL): 276 ng/mL and 247 ng/mL and 312 ng/mL
- plasma concentration, individual mice ([1]; 2 weeks old, 1 h, LLOQ 8 ng/mL): 442 ng/mL and 320 ng/mL and 190 ng/mL
- plasma concentration, individual mice ([1]; 2 weeks old, 4 h, LLOQ 8 ng/mL): 196 ng/mL and 308 ng/mL and 157 ng/mL
- plasma concentration, individual mice ([1]; 2 weeks old, 6 h, LLOQ 8 ng/mL): 148 ng/mL and 144 ng/mL and 232 ng/mL
- plasma concentration, individual mice ([1]; 2 weeks old, 8 h, LLOQ 8 ng/mL): 50.3 ng/mL and 95.4 ng/mL and 202 ng/mL
- plasma concentration, individual mice ([1]; 2 weeks old, 12 h, LLOQ 8 ng/mL): 42.2 ng/mL and 29.1 ng/mL and 34.4 ng/mL
- plasma concentration, individual mice ([1]; 2 weeks old, 24 h, LLOQ 8 ng/mL): 8 ng/mL and 10.2 ng/mL and 8.27 ng/mL
- plasma concentration, individual mice ([1]; 2 weeks old, time 0 h, LLOQ 8 ng/mL): 8 ng/mL
- plasma concentration, individual mice ([1]; 3 weeks old, 6 h, LLOQ 8 ng/mL): 8 ng/mL (3×) and 15 ng/mL
- plasma concentration, individual mice ([1]; 3 weeks old, 8 h, LLOQ 8 ng/mL): 8 ng/mL
- plasma concentration, individual mice ([1]; 3 weeks old, 12 h, LLOQ 8 ng/mL): 8 ng/mL (3×) and 9.31 ng/mL
- plasma concentration, individual mice ([1]; 3 weeks old, 24 h, LLOQ 8 ng/mL): 8 ng/mL
- plasma concentration, individual mice ([1]; 3 weeks old, time 0 h, LLOQ 8 ng/mL): 8 ng/mL
- plasma concentration, individual mice ([1]; 4 weeks old, 4 h, LLOQ 8 ng/mL): 39 ng/mL and 12 ng/mL (2×) and 10 ng/mL
- plasma concentration, individual mice ([1]; 4 weeks old, 6 h, LLOQ 8 ng/mL): 8 ng/mL (3×) and 16 ng/mL
- plasma concentration, individual mice ([1]; 4 weeks old, 8 h, LLOQ 8 ng/mL): 8 ng/mL
- plasma concentration, individual mice ([1]; 4 weeks old, 12 h, LLOQ 8 ng/mL): 8 ng/mL
- plasma concentration, individual mice ([1]; 4 weeks old, 24 h, LLOQ 8 ng/mL): 8 ng/mL
- plasma concentration, individual mice ([1]; 4 weeks old, time 0 h, LLOQ 8 ng/mL): 8 ng/mL
- plasma concentration, individual mice ([1]; 6 weeks old, time 0 h, LLOQ 8 ng/mL): 8 ng/mL
- AUCinf of 3- through 12-week-old mice, times lower than average of 1- and 2-week-old mice ([1]; 1.2 mg/kg single s.c.): about 3.8 times
- maximum observed concentration [1, 5]: 287 ng/mL
- mean AUCinf [1, 5]: 1,789 h*ng/mL
- mean AUCinf ([1]; 1.2 mg/kg single s.c., 2-week-old mice): 2,295 h*ng/mL
- average AUCinf ([1]; 1.2 mg/kg single s.c., 3- through 12-week-old mice): 538 ng·h/mL
Compound: C[C@@H](Oc1ccc2[nH]nc(-c3ccc(N4CC5(C4)CN(S(C)(=O)=O)C5)nc3)c2c1)c1c(Cl)cncc1Cl [TYRA-300]
- plasma concentration, individual mice ([1]; 3 weeks old, 0.5 h, LLOQ 8 ng/mL): 250 ng/mL and 248 ng/mL and 229 ng/mL and 221 ng/mL
- plasma concentration, individual mice ([1]; 3 weeks old, 1 h, LLOQ 8 ng/mL): 293 ng/mL and 238 ng/mL and 250 ng/mL and 251 ng/mL
- plasma concentration, individual mice ([1]; 3 weeks old, 4 h, LLOQ 8 ng/mL): 10.2 ng/mL and 12.5 ng/mL and 17.9 ng/mL and 9.9 ng/mL
- plasma concentration, individual mice ([1]; 4 weeks old, 0.5 h, LLOQ 8 ng/mL): 102 ng/mL and 115 ng/mL and 172 ng/mL and 145 ng/mL and 197 ng/mL
- plasma concentration, individual mice ([1]; 4 weeks old, 1 h, LLOQ 8 ng/mL): 169 ng/mL and 242 ng/mL and 178 ng/mL and 48 ng/mL
- plasma concentration, individual mice ([1]; 6 weeks old, 0.5 h, LLOQ 8 ng/mL): 150 ng/mL and 198 ng/mL and 171 ng/mL and 172 ng/mL
- change in transverse diameter of the foramen magnum ([2]; 1.8 mg/kg daily for 21 days, data not shown): not a statistically significant change
- increase in area of the foramen magnum vs vehicle [2, 6]: 7.51%
- increase in sagittal diameter of the foramen magnum vs vehicle [2, 6]: 6.35%
- grade of synchondroses after treatment ([2]; 1.8 mg/kg daily for 21 days, most mice, vehicle grade V): IV
- source data of Figure 5C (sheet "5C"): grade of synchondroses ([2]; Fgfr3N534K/+ mice + TYRA-300, individual animal values): 5 and 4
- shape of the intervertebral disc [3]: slightly modified the shape of the intervertebral disc
- phenotypic observations in preliminary dose exploration [4]: phenotypic signs consistent with the Fgfr3^–/– model were observed
